Earlier results as cited in patent US20110207823A1, “12-HOUR SUSTAINED-RELEASE METOCLOPRAMIDE” (POSIVISIONARY SOLUTIONS LLP, priority 2008, published 2011).

Details: immediate release dosages

Compound: CCN(CC)CCNC(=O)c1cc(Cl)c(N)cc1OC [metoclopramide, Metoclopramide]
- metoclopramide peaks in plasma with undesirable side effects (akathisia): above 100 nanograms per milliliter
